The subject of this data set is mouse liver microsomes, LC-MS/MS half-life. Put plainly: qHTS Assay to Find Inhibitors of T. brucei phosphofructokinase: Mouse Liver Microsome Stability. The note with it: at 1 µM; active compounds read high. (Quantitative high-throughput screening tests each substance at several concentrations.)

The structures appear in SMILES notation.

In general, half-life refers to how long it takes for the measured level to halve.

Regarding `O=C(Cc1ccc(Cl)c(Cl)c1)Nc1ccc(S(=O)(=O)Nc2ccon2)cc1`, the half-life is 3.85 h.
